Source: patent US12290551B2, “Methods for imaging and treatment of somatostatin-receptor positive tumors” (Corcept Therapeutics Incorporated, priority 2018, dated 2025)

How the values were obtained:
Format in all cases: in vivo, human
[1] = test system: Cushing's syndrome patients; experiment: 24-hr Urinary Free Cortisol, Group 1, 12 week ascending-dose relacorilant study; settings: for change in cortisol levels: Cushing's syndrome patients, Groups 1 and 2 (Tables 1 and 2); for Mean 24-hr UFC: Group 1, baseline 215.6
Text: (§1) Cortisol levels can be measured in a biological sample, such as saliva, urine, whole blood, serum, plasma, or any other biological fluid taken from a patient suffering from Cushing's syndrome. Such samples are typically analyzed in vitro. In some cases, the same sample is used to measure cortisol level and ACTH level. In other cases, different samples are used to measure cortisol and ACTH levels. For example, cortisol levels can be measured in saliva or urine, and ACTH levels can be measured in plasma. In yet other cases, different samples of the same type are used to measure the levels. Methods for measuring cortisol levels are known to those in the art. Useful assays include immunoassays, e.g., competitive immunoassay, radioimmunoassay, immunofluorometric enzyme assay, and ELISA, competitive protein-binding assay and mass spectrometry, e.g., high-performance liquid chromatography/triple quadrupole-mass spectrometry (LC-MS/MS). Commercial kits for measuring cortisol in sample are available from, e.g., Beckman-Coulter, Seimens, Roche Diagnostics, and the like. Non-limiting examples of an immunoassay include an ADVIA Centaur® Cortisol assay (Siemens Healthcare Global), […] i2000SR cortisol (Abbott), Immulite® 2000 Cortisol assay (Siemans Healthcare Global; #L2KCO2), Vitros® ECi Cortisol assay (Ortho Clinical Diagnostics; #107 4053), and Elecsys® Cortisol Immunoassay (Roche Molecular Diagnostics; #11875116160).
Cortisol levels were measured in Cushing's syndrome patients who were administered doses of the heteroaryl-ketone fused azadecalin compound relacorilant. Urinary Free Cortisol (UFC) was measured in these patients over the course of a 12 week study in which ascending doses of relacorilant were administered.

[2] = test system: Cushing's syndrome patients; experiment: 24-hr Urinary Free Cortisol, Group 2, 16 week ascending-dose relacorilant study
Text: as §1
Cortisol levels were measured in a second group of Cushing's syndrome patients who were administered doses of relacorilant. Urinary Free Cortisol (UFC) was measured in these patients over the course of a 16 week study in which ascending doses of relacorilant were administered.

[3] = test system: Cushing's syndrome patients; experiment: Mean ACTH levels in relacorilant Groups 1 and 2
Text: Cortisol levels obtained for individual patients and the UFC tabular summary (Tables 1 and 2 above) show no significant changes from baseline in UFC.

[4] = test system: Cushing's syndrome patients; experiment: Drug-induced hypokalemia in Phase 2 study of relacorilant
[5] = test system: ectopic tumor (somatostatin receptor expression); experiment: Indium octreoscan imaging of ectopic tumor before and after relacorilant treatment; settings: one patient; oral once daily 250, 300, 350, 400 mg/day, four weeks each; 111Indium octreotide
Description: In a further attempt to image, and to localize, the tumor in the patient, an indium octreoscan image (patient was administered Octreotide radiolabeled with ^111Indium prior to imaging) was obtained, in which a dot was seen which enabled localization of the tumor to the right lung/mediastinum region of the patient.
Relacorilant was then orally administered to the patient once per day for four months. The patient was administered 250 milligrams (mg) per day of relacorilant for four weeks, followed by 300 mg/day relacorilant for the next four weeks, followed by 350 mg/day relacorilant for a further four weeks, and then was administered 400 mg relacorilant for another four weeks.
The indium octreoscan image of FIG. 2 provides a much improved and enhanced image of the tumor in the patient as compared to the image of FIG. 1. It is believed that the improvement in the indium octreoscan image of FIG. 2 as compared to the image shown in FIG. 1 was due to increased somatostatin receptor expression, e.g., due to increased sst2 receptor expression, as compared to that expression prior to the relacorilant treatment.

drug-induced hypokalemia [4]: lack of drug-induced hypokalemia
Structure (SMILES): Cn1cc(S(=O)(=O)N2CCC3=Cc4c(cnn4-c4ccc(F)cc4)C[C@]3(C(=O)c3cc(C(F)(F)F)ccn3)C2)cn1 [relacorilant, (R)-(1-(4-fluorophenyl)-6-((1-methyl-1H-pyrazol-4-yl)sulfonyl)-4,4a,5,6,7,8-hexahydro-1H-pyrazolo[3,4-g]isoquinolin-4a-yl)(4-(trifluoromethyl)pyridin-2-yl)methanone]
change in cortisol levels [1]: does not lead to significant increases in cortisol levels | change in cortisol levels ([1]; listed as Relacorilant): no increases in cortisol concentrations | Mean 24-hr UFC ([1]; relacorilant 100 mg, Wk 2): 151.8 µg/day | Mean 24-hr UFC ([1]; relacorilant 100 mg, Wk 4): 157.0 µg/day | Mean 24-hr UFC ([1]; relacorilant 150 mg, Wk 6): 145.3 µg/day | Mean 24-hr UFC ([1]; relacorilant 150 mg, Wk 8): 134.9 µg/day | Mean 24-hr UFC ([1]; relacorilant 200 mg, Wk 10): 180.9 µg/day | Mean 24-hr UFC ([1]; relacorilant 200 mg, Wk 12): 211.6 µg/day | Mean 24-hr UFC ([2]; relacorilant 250 mg, Wk 2, baseline 228.1): 252.1 µg/day | Mean 24-hr UFC ([2]; relacorilant 250 mg, Wk 4, baseline 228.1): 218.2 µg/day | Mean 24-hr UFC ([2]; relacorilant 300 mg, Wk 6, baseline 228.1): 257.4 µg/day | Mean 24-hr UFC ([2]; relacorilant 300 mg, Wk 8, baseline 228.1): 149.1 µg/day | Mean 24-hr UFC ([2]; relacorilant 350 mg, Wk 10, baseline 228.1): 185.4 µg/day | Mean 24-hr UFC ([2]; relacorilant 350 mg, Wk 12, baseline 228.1): 249.0 µg/day | Mean 24-hr UFC ([2]; relacorilant 400 mg, Wk 14, baseline 228.1): 194.1 µg/day | Mean 24-hr UFC ([2]; relacorilant 400 mg, Wk 16, baseline 228.1): 203.1 µg/day | mean ACTH ([3]; Group 1, Week 12, SD 10.34, Baseline 11.02±8.04): 14.68 pmol/L | mean ACTH ([3]; Group 2, Week 16 or last-observed, SD 10.72, Baseline 12.79±8.36): 15.56 pmol/L | change in ACTH ([3]; baseline to end of treatment): only modest increases in ACTH | effect on indium octreoscan images of the ectopic tumor [5]: enhanced
